Results as given in patent US12156857B2, “Composition for promoting ketone body production” (Meiji Co., Ltd., priority 2016, dated 2024).

Columns and labels:
Assay type in all cases: in vivo, Male Wistar rats
[1] = test system: ketone body production; experiment: Selection of amino acid promoting ketone body production: blood β-hydroxybutyric acid after amino acid plus MCT feeding; settings: rats, until 6 hours; for % ΔAUC (%): % relative value of area under the blood concentration-curve ΔAUC of β-hydroxybutyric acid, control group = 100 / % ΔCmax (%): % relative value of maximum blood concentration ΔCmax of β-hydroxybutyric acid, control group = 100: overnight fasting, amino acid 1.0 mmol/kg oral, then caprylic triglyceride (MCT) 3.0 g/kg oral, control water + MCT; for both % ΔCmax and % ΔAUC of β-hydroxybutyric acid compared with control group fed with water: amino acid 1.0 mmol/kg oral + MCT 3.0 g/kg oral
Description: (§1) In the following Examples, the blood β-hydroxybutyric acid concentration was measured with a β-hydroxybutyric acid measuring instrument for self-inspection (Precision Xceed manufactured by Abbott).
In the following Examples, the promotion of ketone body production was evaluated as follows. Specifically, blood was collected from the caudal vein of rats under fasting to measure the blood concentration (mmol/L) of β-hydroxybutyric acid (bHB) as an index of the ketone body in the blood. The measured value was defined as an initial value (0 hours). The rats were grouped into a control group and an experimental group, and fed with test samples. Thereafter, the transition of the blood bHB concentration until after 6 hours from the initial value was graphed. A reference view for determining the maximum blood concentration (Cmax) and area under the blood concentration-curve (AUC) of bHB is shown in FIG. 1A. A value obtained by subtracting the measured value at the initial value (0 hours) from the measured value at the time of each measurement was calculated, and defined as an amount of change in blood β-hydroxybutyric acid concentration (ΔbHB concentration) (FIG. 1B). Then, for the amount of change in blood β-hydroxybutyric acid concentration (ΔbHB concentration), the maximum blood concentration (ΔCmax) and area under the blood concentration-curve (ΔAUC) until after 6 hours from the initial value (0 hours) were calculated (FIG. 1B).
A % relative value (% ΔCmax (%)) of the maximum blood concentration ΔCmax of β-hydroxybutyric acid for the experimental group when the maximum blood concentration ΔCmax of β-hydroxybutyric acid for the control group was assumed to be 100 was determined according to the following calculation formula.
A % relative value (% ΔAUC (%)) of the area under the blood concentration-curve ΔAUC of blood β-hydroxybutyric acid for the experimental group when the area under the blood concentration-curve ΔAUC of blood β-hydroxybutyric acid for the control group was assumed to be 100 was determined according to the following calculation formula.
Male Wistar rats (obtained from Japan SLC, Inc.) were acclimated for one week and then used for testing. Blood was collected from the caudal vein of the rats under overnight fasting to measure the blood concentration (mmol/L) of β-hydroxybutyric acid (bHB) as an index of the ketone body in the blood. The rats were grouped (n=8 for each group) so that the averages of the body weights and the β-hydroxybutyric acid concentrations for the respective groups were as equal as possible. Then, water was orally fed in an amount of 10 mL/kg of the body weight to the control group, and aqueous solutions of various amino acids (manufactured by Wako Pure Chemical Industries, Ltd.) were orally fed in an amount of 1.0 mmol/kg of the body weight to the experimental group. Immediately after feeding of water or each of the aqueous amino acid solutions, caprylic triglyceride (manufactured by Tokyo Chemical Industry Co., Ltd.), which is medium-chain fatty acid oil and fat (MCT), was orally fed in an amount of 3.0 g/kg of the body weight to the groups. Blood was collected from the caudal vein 1, 2, 3, 4, 5, and 6 hours after feeding of MCT to measure the blood β-hydroxybutyric acid concentration.

[2] = test system: ketone body production; experiment: Effect of citrulline or leucine on ketone body production in feeding of medium-chain fatty acid oil and fat; settings: rats, four-hour fasting; amino acid 1.5 mmol/kg oral + caprylic triglyceride (MCT) 4.5 g/kg oral; until 6 hours
Description: as §1
(§2) In the following Examples, the promotion of ketone body production was evaluated as follows. Specifically, blood was collected from the caudal vein of rats under fasting to measure the blood concentration (mmol/L) of β-hydroxybutyric acid (bHB) as an index of the ketone body in the blood. The measured value was defined as an initial value (0 hours). The rats were grouped into a control group and an experimental group, and fed with test samples. Thereafter, the transition of the blood bHB concentration until after 6 hours from the initial value was graphed. […] A value obtained by subtracting the measured value at the initial value (0 hours) from the measured value at the time of each measurement was calculated, and defined as an amount of change in blood β-hydroxybutyric acid concentration (ΔbHB concentration) (FIG. 1B). Then, for the amount of change in blood β-hydroxybutyric acid concentration (ΔbHB concentration), the maximum blood concentration (ΔCmax) and area under the blood concentration-curve (ΔAUC) until after 6 hours from the initial value (0 hours) were calculated (FIG. 1B). […]

[3] = test system: ketone body production; experiment: Effect of citrulline amount on ketone body production in feeding of medium-chain fatty acid oil and fat; settings: rats, four-hour fasting; citrulline 1.5, 2.25 or 3.0 mmol/kg + MCT 4.5 g/kg oral constant; until 6 hours
Description: as §1, §2

SMILES	% ΔAUC (%): % relative value of area under the blood concentration-curve ΔAUC of β-hydroxybutyric acid, control group = 100 [1] [%]	% ΔCmax (%): % relative value of maximum blood concentration ΔCmax of β-hydroxybutyric acid, control group = 100 [1] [%]	both % ΔCmax and % ΔAUC of β-hydroxybutyric acid compared with control group fed with water [1]	ketone body production compared with MCT fed alone (ΔbHB, ΔAUC, ΔCmax, FIGS. 2 to 7) [2]	amount of ketone bodies produced as a function of citrulline intake amount (% ΔAUC, % ΔCmax, FIGS. 8 and 9) [3]
N[C@@H](CC(=O)O)C(=O)O [Aspartic acids (Asp), aspartic acid]	107.5 ± 30.7	108.8 ± 23.6	higher than those for the control group	–	–
NC(=O)NCCC[C@H](N)C(=O)O [Citrulline (Cit), citrulline]	105.4 ± 37.2	112.8 ± 25.5	higher than those for the control group	the ketone body production was promoted	the amount of the ketone bodies produced varied according to the intake amount of citrulline (Cit)
N[C@@H](CS)C(=O)O [Cysteine (Cys), cysteine]	128.3 ± 22.2	151.9 ± 23.8	higher than those for the control group	–	–
NC(=O)CC[C@H](N)C(=O)O [Glutamine (Gln), glutamine]	103.6 ± 30.7	121.2 ± 44.6	higher than those for the control group	–	–
CC(C)C[C@H](N)C(=O)O [Leucine (Leu), leucine]	110.5 ± 21.1	130.1 ± 31.8	higher than those for the control group	the ketone body production was promoted	–
NCCS(=O)(=O)O [Taurine (Tau), taurine]	103.6 ± 23.0	137.8 ± 21.8	higher than those for the control group	–	–
